Patent EP0499648A1, “Enzymatically debranched starches as tablet excipients” (National Starch and Chemical Investment Holding Corporation, priority 1991, dated 1992)

Experiments:
[1] = Visual observation of direct compression APAP tablets (structural integrity, capping, splitting, surface); type: physicochemical; details: direct compression APAP formula
Experimental: (§1) Direct compression tabletting in a laboratory scale tablet press (Stokes, Model B-2, 16 station rotary tablet press with 3/8'' standard concave punches, obtained from Stokes Co., Warminster, PA) was used to prepare tablets from the following formula: […]
(§2) Tablets weighing from 360-460 mg were formed in the tablet press at pressure settings from A (low) to I (high) by adjusting the weight setting for each pressure setting. Compressibility is expressed as a profile obtained by increasing the pressure setting until the accompanying increases in the tablet hardness measurements leveled off. Tablet hardness was determined on a hydraulic tablet hardness tester (Delamar, Model PT 1000, obtained from VanKel Industries, Edison, New Jersey) in units of Kg/cm².
The starch debranching and tabletting methods of Example 1 were employed to make direct compression tablets according to the formula of Example 1.

[2] = Direct compression tabletting of APAP formula: compression profile (tablet hardness vs. press pressure setting); type: physicochemical; details: 64% APAP, 34.75% binder
Experimental: as §1
All ingredients except the binder were dry blended, screened through a 10 mesh sieve and blended with the binder.
as §2

CC(=O)Nc1ccc(O)cc1 [100% APAP, Acetaminophen]
compressibility and structural integrity of tablets (visual observation) [1]: a. Not compressible. | compressibility and structural integrity of tablets (visual observation) ([1]; listed as acetaminophen (APAP)): does not compress to form a tablet | Tablet Hardness ([2]; machine position A (low pressure setting)): 0 Kg/cm² | Tablet Hardness ([2]; machine position B): 0 Kg/cm² | Tablet Hardness ([2]; machine position C): 0 Kg/cm² | Tablet Hardness ([2]; machine position D): 0 Kg/cm² | Tablet Hardness ([2]; machine position E): 0 Kg/cm² | Tablet Hardness ([2]; machine position F): 0 Kg/cm² | Tablet Hardness ([2]; machine position G): 0 Kg/cm² | Tablet Hardness ([2]; machine position H): 0 Kg/cm² | Tablet Hardness ([2]; machine position I (high pressure setting)): 0 Kg/cm²
